Laboratory results from US12290519B2, “Anti-inflammatory coupling compound drug, and preparation method therefor and use thereof” (COVAL BIOPHARMA (SHANGHAI) CO., LTD., priority 2021, dated 2025).

Test: Hydrolysis rate / drug release rate of the compounds (release of JAK inhibitor, HPLC)
Format: physicochemical
Settings: % release of JAK inhibitor from sample in acetonitrile/water=7/3 (v/v), 37° C. constant temperature shaker, sampled days 1-4, HPLC
How it was run: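 HPLC quantified parent JAK inhibitor freed from each compound, calibrated with 0.0002–0.08 mg/mL standards. Samples in acetonitrile/water 7/3 were kept sealed at 37° C and analysed at day 0 and on days 1 to 4. % release was computed from sample weight, curve slope/intercept and the molecular-weight ratio.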

Row | SMILES | Release Rate (%/day)
1 | CNS(=O)(=O)C[C@H]1CC[C@H](N(C)c2ncnc3c2ccn3COC(=O)[C@@H](NC(=O)OC(C)(C)C)c2ccccc2)CC1 [Ex. 91, (4-(Methyl ((trans)-4-((N-methylsulfamoyl)methyl)cyclohexyl)amino)-7H-pyrrolo [2,3-d]pyrimidin-7-yl) methyl (S)-2-((tert-butoxycarbonyl)amino)-2-phenylacetate] | 1.65 %/day
2 | CC(C(=O)OCn1ccc2c(-c3cnn([C@H](CC#N)C4CCCC4)c3)ncnc21)c1cccc(C(=O)c2ccccc2)c1 (stereo partly drawn) [Ex. 99, (4-(1-((R)-2-cyano-1-cyclopentylethyl)-1H-pyrazol-4-yl)-7H-pyrrolo [2,3-d]pyrimidin-7-yl) methyl 2-(3-benzoylphenyl) propanoate] | 0.21 %/day
3 | CC(C(=O)OCn1ccc2c(-c3cnn([C@H](CC#N)C4CCCC4)c3)ncnc21)c1ccc(-c2ccccc2)c(F)c1 (stereo partly drawn) [Ex. 100, (4-(1-((R)-2-cyano-1-cyclopentylethyl)-1H-pyrazol-4-yl)-7H-pyrrolo [2,3-d]pyrimidin-7-yl) methyl 2-(2-fluoro-[1, 1′-biphenyl]-4-yl) propanoate] | 0.24 %/day
4 | CCC(C(=O)OCn1ccc2c(-c3cnn([C@H](CC#N)C4CCCC4)c3)ncnc21)c1ccc(N2Cc3ccccc3C2=O)cc1 (stereo partly drawn) [Ex. 105, (4-(1-((R)-2-cyano-1-cyclopentylethyl)-1H-pyrazol-4-yl)-7H-pyrrolo [2,3-d]pyrimidin-7-yl) methyl 2-(4-(1-oxoisoindolin-2-yl)phenyl) butanoate] | 0.17 %/day
5 | Cc1c(Cl)cccc1Nc1ccccc1C(=O)OCn1ccc2c(-c3cnn([C@H](CC#N)C4CCCC4)c3)ncnc21 [Ex. 107, (R)-(4-(1-(2-cyano-1-cyclopentylethyl)-1H-pyrazol-4-yl)-7H-pyrrolo [2,3-d]pyrimidin-7-yl) methyl 2-((3-chloro-2-methylphenyl)amino) benzoate] | 0.22 %/day
6 | CCS(=O)(=O)N1CC(CC#N)(n2cc(-c3ncnc4c3ccn4COC3=C(C(=O)Nc4ncc(C)s4)N(C)S(=O)(=O)c4ccccc43)cn2)C1 [Ex. 122, 4-((4-(1-(3-(Cyanomethyl)-1-(ethylsulfonyl)azetidin-3-yl)-1H-pyrazol-4-yl)-7H-pyrrolo [2,3-d]pyrimidin-7-yl)methoxy)-2-methyl-N-(5-methylthiazol-2-yl)-2H-benzo [e] [1, 2] thiazine-3-carboxamide 1,1-dioxide] | 15.32 %/day
7 | CC[C@@H]1CN(C(=O)NCC(F)(F)F)C[C@@H]1c1cnc2cnc3c(ccn3C(=O)[C@@H](C)c3ccc(CC(C)C)cc3)n12 [Ex. 123, (3S, 4R)-3-ethyl-4-(3-((S)-2-(4-isobutylphenyl)propanoyl)-3H-imidazo [1,2-a]pyrrolo [2,3-e]pyrazin-8-yl)-N-(2,2,2-trifluoroethyl) pyrrolidine-1-carboxamide] | 3.02 %/day
8 | CC[C@@H]1CN(C(=O)NCC(F)(F)F)C[C@@H]1c1cnc2cnc3c(ccn3C(=O)C(C)c3ccc(CC(C)C)cc3)n12 (stereo partly drawn) [Ex. 124, (3S, 4R)-3-ethyl-4-(3-(2-(4-isobutylphenyl)propanoyl)-3H-imidazo [1,2-a]pyrrolo [2,3-e]pyrazin-8-yl)-N-(2,2,2-trifluoroethyl) pyrrolidine-1-carboxamide] | 2.75 %/day
9 | CC[C@@H]1CN(C(=O)NCC(F)(F)F)C[C@@H]1c1cnc2cnc3c(ccn3C(=O)C(C)c3ccc(-c4ccccc4)c(F)c3)n12 (stereo partly drawn) [Ex. 125, (3S, 4R)-3-ethyl-4-(3-(2-(2-fluoro-[1, 1′-biphenyl]-4-yl)propanoyl)-3H-imidazo [1,2-a]pyrrolo [2,3-e]pyrazin-8-yl)-N-(2,2,2-trifluoroethyl) pyrrolidine-1-carboxamide] | 6.17 %/day
10 | CC[C@@H]1CN(C(=O)NCC(F)(F)F)C[C@@H]1c1cnc2cnc3c(ccn3C(=O)C(C)c3cccc(C(=O)c4ccccc4)c3)n12 (stereo partly drawn) [Ex. 126, (3R, 4S)-3-(3-(2-(3-benzoylphenyl)propanoyl)-3H-imidazo [1,2-a]pyrrolo [2,3-e]pyrazin-8-yl)-4-ethyl-N-(2,2,2-trifluoroethyl) pyrrolidine-1-carboxamide] | 7.80 %/day
11 | CC[C@@H]1CN(C(=O)NCC(F)(F)F)C[C@@H]1c1cnc2cnc3c(ccn3C(=O)c3ccccc3Nc3cccc(Cl)c3C)n12 [Ex. 130, (3R, 4S)-3-(3-(2-((3-chloro-2-methylphenyl)amino)benzoyl)-3H-imidazo [1,2-a]pyrrolo [2,3-e]pyrazin-8-yl)-4-ethyl-N-(2,2,2-trifluoroethyl) pyrrolidine-1-carboxamide] | 11.67 %/day
12 | CC[C@@H]1CN(C(=O)NCC(F)(F)F)C[C@@H]1c1cnc2cnc3c(ccn3C(=O)[C@@H](C)c3ccc4cc(OC)ccc4c3)n12 [Ex. 131] | 3.56 %/day
13 | CCC(C(=O)n1ccc2c1ncc1ncc([C@H]3CN(C(=O)NCC(F)(F)F)C[C@H]3CC)n12)c1ccc(N2Cc3ccccc3C2=O)cc1 (stereo partly shown) [Ex. 138] | 2.15 %/day
14 | CC(C)Cc1ccc([C@H](C)C(=O)n2ccc3c(N4CC[C@]5(C4)[C@@H](C)CN5C(=O)CC#N)ncnc32)cc1 [Ex. 140, 3-((3S, 4R)-6-(7-((S)-2-(4-isobutylphenyl)propanoyl)-7H-pyrrolo [2,3-d]pyrimidin-4-yl)-3-methyl-1,6-diazaspiro [3.4]oct-1-yl)-3-oxopropanenitrile] | 8.10 %/day

More lines, now with the values ahead:

Row | Release Rate (%/day) | SMILES
15 | 0.82 %/day | CNS(=O)(=O)C[C@H]1CC[C@H](N(C)c2ncnc3c2ccn3COC(=O)Cc2ccccc2Nc2c(Cl)cccc2Cl)CC1 [Ex. 92, (4-(Methyl ((trans)-4-((N-methylsulfamoyl)methyl)cyclohexyl)amino)-7H-pyrrolo [2,3-d]pyrimidin-7-yl) methyl 2-(2-((2,6-dichlorophenyl)amino)phenyl) acetate]
16 | 0.83 %/day | CNS(=O)(=O)C[C@H]1CC[C@H](N(C)c2ncnc3c2ccn3COC(=O)Cc2ccc(NC(C)=O)cc2)CC1 [Ex. 93, (4-(Methyl ((trans)-4-((N-methylsulfamoyl)methyl)cyclohexyl)amino)-7H-pyrrolo [2,3-d]pyrimidin-7-yl) methyl 2-(4-acetamidophenyl) acetate]
17 | 0.72 %/day | CCc1cccc2c3c([nH]c12)C(CC)(CC(=O)OCn1ccc2c(N(C)[C@H]4CC[C@H](CS(=O)(=O)NC)CC4)ncnc21)OCC3 (stereo partly drawn) [Ex. 94, (4-(Methyl ((trans)-4-((N-methylsulfamoyl)methyl)cyclohexyl)amino)-7H-pyrrolo [2,3-d]pyrimidin-7-yl) methyl 2-(1,8-diethyl-1,3,4,9-tetrahydropyran [3,4-b]indol-1-yl) acetate]
18 | 0.45 %/day | COc1ccc2c(c1)c(CC(=O)OCn1ccc3c(-c4cnn([C@H](CC#N)C5CCCC5)c4)ncnc31)c(C)n2C(=O)c1ccc(Cl)cc1 [Ex. 104, (R)-2-(4-(1-(2-cyano-1-cyclopentylethyl)-1H-pyrazol-4-yl)-7H-pyrrolo [2,3-d]pyrimidin-7-yl) methyl 2-(1-(4-chlorobenzoyl)-5-methoxy-2-methyl-1H-indol-3-yl) acetate]
19 | 0.08 %/day | CC(=O)Nc1ccc(CC(=O)OCn2ccc3c(-c4cnn([C@H](CC#N)C5CCCC5)c4)ncnc32)cc1 [Ex. 110, (R)-(4-(1-(2-cyano-1-cyclopentylethyl)-1H-pyrazol-4-yl)-7H-pyrrolo [2,3-d]pyrimidin-7-yl) methyl 2-(4-acetamidophenyl) acetate]
20 | 0.42 %/day | CNS(=O)(=O)CC1CCC(N(C)c2ncnc3c2ccn3COC(=O)C(C)c2ccc(-c3ccccc3)c(F)c2)CC1 (stereo not drawn) [Ex. 113, (4-(Methyl ((trans)-4-((N-methylsulfamoyl)methyl)cyclohexyl)amino)-7H-pyrrolo [2,3-d]pyrimidin-7-yl) methyl 2-(2-fluoro-[1, 1′-biphenyl]-4-yl) propanoate]
21 | 0.42 %/day | CNS(=O)(=O)CC1CCC(N(C)c2ncnc3c2ccn3COC(=O)Cc2c(C)n(C(=O)c3ccc(Cl)cc3)c3ccc(OC)cc23)CC1 (stereo not drawn) [Ex. 116, (4-(Methyl ((trans)-4-((N-methylsulfamoyl)methyl)cyclohexyl)amino)-7H-pyrrolo [2,3-d]pyrimidin-7-yl) methyl 2-(1-(4-chlorobenzoyl)-5-methoxy-2-methyl-1H-indol-3-yl) acetate]
22 | 0.08 %/day | CCC(C(=O)OCn1ccc2c(N(C)C3CCC(CS(=O)(=O)NC)CC3)ncnc21)c1ccc(N2Cc3ccccc3C2=O)cc1 (stereo not drawn) [Ex. 117, (4-(Methyl ((trans)-4-((N-methylsulfamoyl)methyl)cyclohexyl)amino)-7H-pyrrolo [2,3-d]pyrimidin-7-yl) methyl 2-(4-(1-)oxoisoindolin-2-yl) phenyl) butanoate]
23 | 0.42 %/day | CNS(=O)(=O)C[C@H]1CC[C@H](N(C)c2ncnc3c2ccn3COC(=O)c2ccccc2Nc2cccc(Cl)c2C)CC1 [Ex. 120, (4-(Methyl ((trans)-4-((N-methylsulfamoyl)methyl)cyclohexyl)amino)-7H-pyrrolo [2,3-d]pyrimidin-7-yl) methyl 2-((3-chloro-2-methylphenyl)amino) benzoate]
24 | 10.13 %/day | CC[C@@H]1CN(C(=O)NCC(F)(F)F)C[C@@H]1c1cnc2cnc3c(ccn3C(=O)Cc3c(C)n(C(=O)c4ccc(Cl)cc4)c4ccc(OC)cc34)n12 [Ex. 133, (3R, 4S)-3-(3-(2-(1-(4-Chlorobenzoyl)-5-methoxy-2-methyl-1H-indol-3-yl)acetyl)-3H-imidazo [1,2-a]pyrrolo [2,3-e]pyrazin-8-yl)-4-ethyl-N-(2,2,2-trifluoroethyl) pyrrolidine-1-carboxamide]
25 | 0.05 %/day | Cc1cnc(NC(=O)C2=C(OCn3ccc4c(N(C)[C@H]5CN(C(=O)CC#N)CC[C@H]5C)ncnc43)c3ccccc3S(=O)(=O)N2C)s1 [Ex. 142, 4-((4-(((3R, 4R)-1-(2-cyanoacetyl)-4-methylpiperidin-3-yl) (methyl)amino)-7H-pyrrolo [2,3-d]pyrimidin-7-yl)methoxy)-2-methyl-N-(5-methylthiazol-2-yl)-2H-benzo [e] [1, 2] thiazine-3-carboxamide 1,1-dioxide]
